Laboratory results published in ChEMBL document CHEMBL2396526, “Chromenylchalcones showing cytotoxicity on human colon cancer cell lines and in silico docking with aurora kinases” (Bioorg Med Chem, 2013).
The source made the active and inactive calls. No cut-off for these calls is given here.

What was measured:
[1] = biological target: T1, Discoidin domain-containing receptor 2 (Homo sapiens) (UniProt Q16832); assay: Inhibition of human DDR2
T1 sequence (whole entry): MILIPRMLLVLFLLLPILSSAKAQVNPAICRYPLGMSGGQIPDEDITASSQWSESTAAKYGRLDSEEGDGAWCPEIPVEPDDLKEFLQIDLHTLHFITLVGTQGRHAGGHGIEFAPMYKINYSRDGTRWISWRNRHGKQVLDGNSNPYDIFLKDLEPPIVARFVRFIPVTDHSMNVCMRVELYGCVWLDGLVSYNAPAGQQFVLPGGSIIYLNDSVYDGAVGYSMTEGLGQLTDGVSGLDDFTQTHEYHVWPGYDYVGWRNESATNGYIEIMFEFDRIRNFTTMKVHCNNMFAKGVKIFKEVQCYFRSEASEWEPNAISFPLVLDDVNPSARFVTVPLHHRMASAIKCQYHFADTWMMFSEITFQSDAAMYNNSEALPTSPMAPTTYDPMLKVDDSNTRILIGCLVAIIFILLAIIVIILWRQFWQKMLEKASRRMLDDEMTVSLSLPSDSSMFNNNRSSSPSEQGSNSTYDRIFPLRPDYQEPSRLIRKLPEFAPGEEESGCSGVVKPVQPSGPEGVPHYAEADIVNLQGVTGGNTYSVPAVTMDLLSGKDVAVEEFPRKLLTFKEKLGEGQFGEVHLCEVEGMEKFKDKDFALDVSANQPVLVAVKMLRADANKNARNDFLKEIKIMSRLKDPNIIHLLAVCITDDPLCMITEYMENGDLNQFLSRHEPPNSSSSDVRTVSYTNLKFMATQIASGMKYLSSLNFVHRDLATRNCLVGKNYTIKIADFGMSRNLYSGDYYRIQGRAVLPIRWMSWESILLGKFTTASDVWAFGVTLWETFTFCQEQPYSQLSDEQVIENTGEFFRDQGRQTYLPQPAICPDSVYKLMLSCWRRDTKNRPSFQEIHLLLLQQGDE

HCT-116 [2] = assay: Cell cycle arrest in human HCT116 cells assessed as accumulation at S phase at 20 uM after 48 hrs by propidium iodide staining-based flow cytometric analysis (reference value: 2.9%); format: functional
HCT-116 [3] = assay: Cell cycle arrest in human HCT116 cells assessed as accumulation at sub-G1 phase at 20 uM after 48 hrs by propidium iodide staining-based flow cytometric analysis (reference value: 2.9%); format: functional
HCT-116 [4] = assay: Cytotoxicity against human HCT116 cells assessed as decrease in cell viability at > 20 uM after 24 hrs by CCK8 assay; format: functional, cell-based
[5] = biological target: T2, Ephrin type-B receptor 3 (Homo sapiens) (UniProt P54753); assay: Inhibition of human EphB
T2 sequence (whole entry): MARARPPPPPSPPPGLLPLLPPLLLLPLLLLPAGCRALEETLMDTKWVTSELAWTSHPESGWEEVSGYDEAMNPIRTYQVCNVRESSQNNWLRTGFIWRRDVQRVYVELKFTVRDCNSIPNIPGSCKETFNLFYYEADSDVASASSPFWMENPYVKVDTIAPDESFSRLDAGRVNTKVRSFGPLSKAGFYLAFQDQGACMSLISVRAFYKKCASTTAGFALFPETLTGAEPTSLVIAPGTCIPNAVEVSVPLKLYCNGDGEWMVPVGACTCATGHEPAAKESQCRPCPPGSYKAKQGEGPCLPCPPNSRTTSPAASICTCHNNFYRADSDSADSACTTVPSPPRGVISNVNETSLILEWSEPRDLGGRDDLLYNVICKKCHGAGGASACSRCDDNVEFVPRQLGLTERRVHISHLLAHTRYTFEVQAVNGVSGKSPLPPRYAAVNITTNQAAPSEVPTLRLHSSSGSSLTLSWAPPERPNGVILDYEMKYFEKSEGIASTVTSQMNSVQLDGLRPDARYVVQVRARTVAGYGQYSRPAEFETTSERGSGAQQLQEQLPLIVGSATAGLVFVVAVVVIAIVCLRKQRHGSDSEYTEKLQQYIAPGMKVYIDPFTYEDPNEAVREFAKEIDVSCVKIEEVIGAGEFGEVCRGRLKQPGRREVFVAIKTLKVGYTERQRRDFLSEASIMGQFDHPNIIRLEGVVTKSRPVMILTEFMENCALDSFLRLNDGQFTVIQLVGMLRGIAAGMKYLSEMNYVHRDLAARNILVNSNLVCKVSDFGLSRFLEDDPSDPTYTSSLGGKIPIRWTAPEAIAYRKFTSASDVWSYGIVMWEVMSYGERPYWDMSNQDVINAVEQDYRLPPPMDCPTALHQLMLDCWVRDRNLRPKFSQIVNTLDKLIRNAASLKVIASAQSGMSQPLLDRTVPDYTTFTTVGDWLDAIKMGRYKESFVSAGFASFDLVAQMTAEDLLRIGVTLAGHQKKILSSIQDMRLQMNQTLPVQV

HCT-116 [6] = assay: Cell cycle arrest in human HCT116 cells assessed as accumulation at S phase at 20 uM after 12 hrs by propidium iodide staining-based flow cytometric analysis (reference value: 26.9%); format: functional
[7] = biological target: Epidermal growth factor receptor (Homo sapiens) (UniProt P00533); assay: Inhibition of human EGFR
[8] = biological target: [Pyruvate dehydrogenase (acetyl-transferring)] kinase isozyme 1, mitochondrial (Homo sapiens) (UniProt Q15118); assay: Inhibition of human PDK1
[9] = biological target: Tyrosine-protein kinase Lck (Homo sapiens) (UniProt P06239); assay: Inhibition of human LCK
HCT-116 [10] = assay: Cell cycle arrest in human HCT116 cells assessed as accumulation at G2/M phase at 20 uM after 48 hrs by propidium iodide staining-based flow cytometric analysis (reference value: 2.9%); format: functional
[11] = biological target: T3, Interleukin-1 receptor-associated kinase 4 (Homo sapiens) (UniProt Q9NWZ3); assay: Inhibition of human IRAK4
T3 sequence (whole entry): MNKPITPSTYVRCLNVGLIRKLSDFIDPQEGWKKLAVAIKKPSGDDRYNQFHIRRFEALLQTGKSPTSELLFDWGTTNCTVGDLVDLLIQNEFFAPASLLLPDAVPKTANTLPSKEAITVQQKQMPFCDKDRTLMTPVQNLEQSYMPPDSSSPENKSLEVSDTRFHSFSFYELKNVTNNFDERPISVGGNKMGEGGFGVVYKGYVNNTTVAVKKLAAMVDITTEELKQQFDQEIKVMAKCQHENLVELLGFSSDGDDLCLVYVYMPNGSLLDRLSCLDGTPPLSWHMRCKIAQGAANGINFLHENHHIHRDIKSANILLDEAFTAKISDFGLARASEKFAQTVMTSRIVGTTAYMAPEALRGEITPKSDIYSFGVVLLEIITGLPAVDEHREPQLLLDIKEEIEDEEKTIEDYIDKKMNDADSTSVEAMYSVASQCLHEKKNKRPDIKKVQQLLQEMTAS

[12] = biological target: RAF proto-oncogene serine/threonine-protein kinase (Homo sapiens) (UniProt P04049); assay: Inhibition of human c-RAF
HCT-116 [13] = assay: Cell cycle arrest in human HCT116 cells assessed as accumulation at G1 phase at 20 uM after 12 hrs by propidium iodide staining-based flow cytometric analysis (reference value: 48.2%); format: functional

Chain of RAF proto-oncogene serine/threonine-protein kinase (Homo sapiens) (P04049 whole entry): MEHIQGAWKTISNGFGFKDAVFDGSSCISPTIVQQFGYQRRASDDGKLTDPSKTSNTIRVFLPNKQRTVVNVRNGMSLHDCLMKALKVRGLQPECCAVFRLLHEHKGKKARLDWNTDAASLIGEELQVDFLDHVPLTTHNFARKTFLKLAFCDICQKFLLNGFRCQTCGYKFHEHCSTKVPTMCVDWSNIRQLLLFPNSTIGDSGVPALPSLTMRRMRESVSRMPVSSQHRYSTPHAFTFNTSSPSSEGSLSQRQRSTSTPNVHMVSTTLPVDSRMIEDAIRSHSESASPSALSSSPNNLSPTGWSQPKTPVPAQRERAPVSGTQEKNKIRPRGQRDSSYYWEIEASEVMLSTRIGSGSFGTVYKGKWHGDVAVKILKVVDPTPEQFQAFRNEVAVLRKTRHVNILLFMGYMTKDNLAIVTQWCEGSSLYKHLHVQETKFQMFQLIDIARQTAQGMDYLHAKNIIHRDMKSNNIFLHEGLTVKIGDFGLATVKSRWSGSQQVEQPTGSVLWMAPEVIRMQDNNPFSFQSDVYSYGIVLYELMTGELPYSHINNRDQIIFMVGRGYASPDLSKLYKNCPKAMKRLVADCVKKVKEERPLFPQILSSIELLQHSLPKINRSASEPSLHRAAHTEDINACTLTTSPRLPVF
Chain of Tyrosine-protein kinase Lck (Homo sapiens) (P06239 2-509 limits assumed): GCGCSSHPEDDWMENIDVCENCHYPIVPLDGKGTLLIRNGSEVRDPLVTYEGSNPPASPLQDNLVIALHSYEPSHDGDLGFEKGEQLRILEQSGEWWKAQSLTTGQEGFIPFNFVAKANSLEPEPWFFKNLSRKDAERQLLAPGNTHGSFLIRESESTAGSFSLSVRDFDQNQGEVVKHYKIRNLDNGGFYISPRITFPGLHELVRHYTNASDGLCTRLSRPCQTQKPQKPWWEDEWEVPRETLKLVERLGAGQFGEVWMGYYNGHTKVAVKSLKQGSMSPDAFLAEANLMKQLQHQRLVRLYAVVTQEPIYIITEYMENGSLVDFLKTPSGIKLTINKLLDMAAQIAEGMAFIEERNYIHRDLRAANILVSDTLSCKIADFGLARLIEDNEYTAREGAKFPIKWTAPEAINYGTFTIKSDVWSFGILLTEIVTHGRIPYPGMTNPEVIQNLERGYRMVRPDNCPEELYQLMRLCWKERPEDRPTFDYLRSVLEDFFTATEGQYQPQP
Chain of Epidermal growth factor receptor (Homo sapiens) (P00533 whole entry): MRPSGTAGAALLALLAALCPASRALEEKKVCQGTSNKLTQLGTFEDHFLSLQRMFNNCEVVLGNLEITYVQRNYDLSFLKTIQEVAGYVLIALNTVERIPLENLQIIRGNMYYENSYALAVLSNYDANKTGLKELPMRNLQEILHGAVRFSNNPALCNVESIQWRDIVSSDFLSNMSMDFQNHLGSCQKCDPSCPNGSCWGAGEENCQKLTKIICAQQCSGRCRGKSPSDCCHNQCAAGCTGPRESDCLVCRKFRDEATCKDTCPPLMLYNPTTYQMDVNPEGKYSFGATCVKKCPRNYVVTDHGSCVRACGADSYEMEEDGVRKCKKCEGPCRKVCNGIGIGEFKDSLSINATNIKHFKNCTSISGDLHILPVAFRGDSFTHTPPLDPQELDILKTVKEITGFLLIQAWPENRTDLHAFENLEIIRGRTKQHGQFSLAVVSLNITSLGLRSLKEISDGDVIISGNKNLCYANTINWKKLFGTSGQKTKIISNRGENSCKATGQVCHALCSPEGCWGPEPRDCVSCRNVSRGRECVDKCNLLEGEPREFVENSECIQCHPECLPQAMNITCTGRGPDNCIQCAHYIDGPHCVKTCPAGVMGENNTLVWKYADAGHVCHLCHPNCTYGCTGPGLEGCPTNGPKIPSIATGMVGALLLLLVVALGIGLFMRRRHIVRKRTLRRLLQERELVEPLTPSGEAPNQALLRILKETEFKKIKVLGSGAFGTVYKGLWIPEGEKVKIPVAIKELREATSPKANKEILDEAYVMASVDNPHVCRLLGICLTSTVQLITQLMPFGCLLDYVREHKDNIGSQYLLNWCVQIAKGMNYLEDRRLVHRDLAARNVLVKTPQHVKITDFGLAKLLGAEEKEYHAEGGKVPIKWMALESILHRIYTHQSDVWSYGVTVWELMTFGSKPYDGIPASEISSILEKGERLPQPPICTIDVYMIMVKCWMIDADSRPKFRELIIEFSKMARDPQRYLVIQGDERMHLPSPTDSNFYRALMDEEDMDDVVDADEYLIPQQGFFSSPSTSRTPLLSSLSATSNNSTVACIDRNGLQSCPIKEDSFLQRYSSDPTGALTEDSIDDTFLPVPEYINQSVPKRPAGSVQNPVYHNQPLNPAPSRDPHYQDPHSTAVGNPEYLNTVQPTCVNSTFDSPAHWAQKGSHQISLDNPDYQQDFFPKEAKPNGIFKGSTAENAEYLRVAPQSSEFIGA

**Q.** Which results are given for `COc1ccc2c(c1)C=C(C(=O)/C=C/c1c(OC)cc(OC)cc1OC)CO2`?
**A.** inhibition [1]: inactive; Activity (HCT-116 [2]): 13.2%; Activity (HCT-116 [3]): 45.3%; Activity (HCT-116 [4]): Active; inhibition [5]: inactive; Activity (HCT-116 [6]): 19.6%; inhibition [7]: inactive; inhibition [8]: inactive; inhibition [9]: inactive; Activity (HCT-116 [10]): 8.4%; inhibition [11]: inactive; inhibition [12]: inactive; Activity (HCT-116 [13]): 18.9%
